According to patent US11786457B2, “Peritumoral and intratumoral materials for cancer therapy” (President and Fellows of Harvard College, priority 2015, dated 2023):

What was measured:
[1] = tested on: human lung cancer and breast cancer; conditions: PNAS 2012 109 (24) 9623-9628; cited from earlier work
CD137 = CD137 (Homo sapiens, UniProt Q07011); conditions: several clinical trials, Ascierto et al., 2010; cited from earlier work
immune cells = assay: Click alginate cryogel with cytokines/chemokines placed under the skin, screened for immune cell accumulation; assay type: in vivo; conditions: Cryoclick gels
Description: FIG. 12 is a series of photographs showing immune cell accumulation using GM-CSF—DC growth/differentiation factor in the device. FIGS. 12-15 show data using Cryoclick gels. Using a click alginate cryogel, a number of cytokines and chemokines were placed under the skin and screened for resulting activity in terms of immune cell accumulation.

[2] = tested on: human embryonic kidney (HEK) toll-like receptor-3 (TLR3) cells; assay: Bioactivity of poly I:C released from CryogelMA on HEK TLR3 cells; assay type: cell-based; conditions: in vitro, supernatants over several days, absorbance
Description: FIG. 8 is a line graph showing CryogelMA poly I:C release and bioactivity. […] Doing this in the tumor microenvironment stimulates maturation of recruited antigen-presenting cells (APCs) and results in antitumor immunity.

CD137, sequence (Q07011 24-255): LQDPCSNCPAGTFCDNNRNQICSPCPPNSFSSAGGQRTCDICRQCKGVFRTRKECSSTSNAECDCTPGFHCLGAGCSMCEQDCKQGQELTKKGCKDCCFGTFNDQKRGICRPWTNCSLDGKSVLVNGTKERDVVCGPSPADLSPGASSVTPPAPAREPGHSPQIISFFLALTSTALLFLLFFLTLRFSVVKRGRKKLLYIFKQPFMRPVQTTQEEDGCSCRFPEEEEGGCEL

CN(CC(=O)N(Cc1ccc(C2CCCCC2)cc1)c1ccc(C(=O)O)c(O)c1)S(=O)(=O)c1c(F)c(F)c(F)c(F)c1F [BP-1-102]
activity against tumors in animals [1]: active

COc1cccc2c1C(=O)c1c(O)c3c(c(O)c1C2=O)C[C@@](O)(C(=O)CO)C[C@@H]3O[C@H]1C[C@H](N)[C@H](O)[C@H](C)O1 [doxorubicin]
cell death at the tumor close to the scaffold border (tumor cells; day 3 after peritumoral injection, cleaved-caspase 3 staining): local cell death is induced
effect on surrounding normal tissue (tumor cells; local delivery from the gels, FIG. 22): much less affected

BMS-66513: anti-CD137 antibody
clinical response (CD137): partial remissions in disease
clinical toxicity (CD137): liver toxicity

CCL20: Chemokine (C-C motif) ligand 20, DC chemokine
immune cell accumulation at gel placed under the skin (immune cells): bright DC staining at gel periphery

IL-15: interleukin-15, T cell/NK cell survival factor
immune cell accumulation at gel placed under the skin (immune cells): accumulation of CD4 and CD8 T cells in the skin

polyinosine-polycytidylic acid [poly I:C]
response of HEK TLR3 cells to supernatants [2]: produce a response measured by absorbance
